# Measurements: patent US4018782A, “2,2-Dimethyl-3R-carboxy-6S- acylamido-1-oxa-4-aza-5R-bicyclo[3,2,0]heptan-7-ones” (Queen's University, priority 1974, dated 1977)
# What was measured:
# S. lutea = experiment: antibacterial activity (plate assay) vs S. lutea; format: cell-based
# Protocol: The oxazoline (74 mg., 0.236 mmole) was dissolved in HMPT (1.5 ml.) and the solution was degassed with dry nitrogen for 0.5 hr. Then 0.83 ml. of a 0.612 M solution of t-BuSLi (0.508 mmole), prepared by method A, was added during 0.5 hr. and the mixture was stirred overnight. […] The characteristic peak of the oxazolinecarboxylic acid, 2-benzyl-6-(1'-carboxy-2'-methyl-prop-1'-enyl)-1-oxa-3,6-diaza-4S,5R-bicyclo [3,2,0] hept-2-ene-7-one, were absent from the spectrum.
# [1] = antibacterial activity (organism not stated); format: cell-based; settings: at levels of 250 mcg./ml.
smiles,measurement,setting,value
CC1(C)O[C@@H]2[C@H](N3C(=O)c4ccccc4C3=O)C(=O)N2[C@H]1C(=O)O [6-phthalimido oxapenicillin],antibacterial activity versus S. lutea relative to phthalimidopenicillin,S. lutea; compared with phthalimidopenicillin,one-tenth the level of phthalimidopenicillin
"CC(C)=C(C(=O)O)N1C(=O)[C@H]2N=C(Cc3ccccc3)O[C@H]21 [oxazoline carboxylic acid, 2-benzyl-6-(1'-carboxy-2'-methylprop-1'-enyl)-1-oxa-3,6-diaza-4S,5R-bicyclo [3.2.0] hept-2-en-7-one]",antibacterial activity at 250 mcg./ml.,[1],inactive
CC(Oc1ccc(Cl)cc1)C(=O)N[C@@H]1C(=O)N2[C@@H]1OC(C)(C)[C@@H]2C(=O)O (stereo partly drawn),antibacterial activity vs. S. lutea,S. lutea,high antibacterial activity
